In the SangsterLogP compilation:

| Structure (SMILES) | logP |
| --- | --- |
| CCOC1N=C(c2ccccc2)c2cc(Cl)ccc2N(CCO)C1=O (stereo not drawn) | 2.44 |
| O=C(O)CCC(=O)OC1N=C(c2ccccc2)c2cc(Cl)ccc2NC1=O (stereo not drawn) | 1.5 |
| O=C1C(O)N=C(c2ccccc2Cl)c2cc(Cl)ccc2N1CCO (stereo not drawn) | 2.16 |
| CN1C(=O)C(O)N=C(c2ccccc2F)c2cc(Cl)ccc21 (stereo not drawn) | 2.09 |
| O=C1C(O)N=C(c2ccccc2)c2cc([N+](=O)[O-])ccc2N1CCO (stereo not drawn) | 0.55 |
| CC(=O)OC1N=C(c2ccccc2)c2cc(Cl)ccc2N(CCO)C1=O (stereo not drawn) | 2.45 |
| O=C1C(O)N=C(c2ccccc2)c2cc(Cl)ccc2N1CCCO (stereo not drawn) | 1.68 |
| CCN(CC)CCN1C(=O)C(O)N=C(c2ccccc2)c2cc(Cl)ccc21 (stereo not drawn) | 1.7 |
| CC(=O)OCCN1C(=O)C(OC(C)=O)N=C(c2ccccc2)c2cc(Cl)ccc21 (stereo not drawn) | 2.74 |
| CN1C(=O)C(O)N=C(c2ccccc2Cl)c2cc(Cl)ccc21 (stereo not drawn) | 2.5 |
| O=C1CN=C(c2ccccc2)c2cc(Cl)ccc2N1CC(F)(F)F | 3.97 |
| CNC(=O)N1C(=O)CN=C(c2ccccc2)c2cc([N+](=O)[O-])ccc21 | 1.76 |
| CCCC(CCC)C(=O)OC1N=C(c2ccccc2)c2cc(Cl)ccc2NC1=O (stereo not drawn) | 4.94 |
| O=C1C[N+]([O-])=C(c2ccccc2)c2cc(Cl)ccc2N1CCO | 0.82 |
| CCOC1N=C(c2ccccc2)c2cc(Cl)ccc2N(CCCl)C1=O (stereo not drawn) | 3.53 |
| O=C1C(O)N=C(c2ccccc2F)c2cc(Cl)ccc2N1CCO (stereo not drawn) | 1.52 |
| CCN(CC)CCN1C(=O)C(O)N=C(c2ccccc2Cl)c2cc(Cl)ccc21 (stereo not drawn) | 1.76 |
| O=C(O)CCC(=O)OCCN1C(=O)C[N+]([O-])=C(c2ccccc2)c2cc(Cl)ccc21 | 0.36 |
| O=C1C(O)N=C(c2ccccc2)c2cc(Cl)ccc2N1CCO (stereo not drawn) | 1.53 |
| O=C1Nc2ccc(Cl)cc2C(c2ccccc2F)=NC1O (stereo not drawn) | 1.81 |
| CC(=O)OCCCN1C(=O)C(OC(C)=O)N=C(c2ccccc2)c2cc(Cl)ccc21 (stereo not drawn) | 3.08 |
| COc1cc(C(=O)OC2N=C(c3ccccc3)c3cc(Cl)ccc3NC2=O)cc(OC)c1OC (stereo not drawn) | 3.75 |
| CCN(CC)CCN1C(=O)C(O)N=C(c2ccccc2F)c2cc(Cl)ccc21 (stereo not drawn) | 1.89 |
